We go through 2 compounds from ChEMBL document CHEMBL5046259, “Cannabinoids Block Cellular Entry of SARS-CoV-2 and the Emerging Variants” (J Nat Prod, 2022).

In brackets after ≈: the same amount, converted by molar mass. Activity calls are given as the source filed them. The calls are words filed in the database; no cut-off is given here.

In general, IC50 refers to the concentration that inhibits the measured activity by half.

One data set concerns Caco-2. The data set is described as follows: Cytotoxicity against human Caco-2 cells by resazurin assay. The class given is toxicity, cell-based. For orientation: Resazurin is reduced to fluorescent resorufin, in cell work by metabolically active cells.
A further data set has as its system HEK-293T. The data set is described as follows: Cytotoxicity against human HEK293T cells overexpressing ACE2 by resazurin assay. The data set is classed as toxicity, cell-based.
The subject of a further data set is Vero C1008. As to the kind of experiment: Cytotoxicity against African green monkey Vero E6 cells by resazurin assay. The data set is classed as toxicity, cell-based. Conditions: chlorocebus sabaeus.
The test system of data set [1] is SARS-CoV-2. The data set is described as follows: Antiviral activity against SARS-CoV-2 infected in African green monkey Vero E6 cells assessed as inhibition of viral entry at 25 ug/ml measured after 24 hrs post infection by fluorescence microscopy. The class given is functional, organism-based. Conditions: Severe acute respiratory syndrome coronavirus 2, dose 25.0 µg/ml.

In data set [2] the test system is SARS-CoV-2. The data set is described as follows: Antiviral activity against SARS-CoV-2 isolate USA-WA1/2020 strain infected in African green monkey Vero E6 cells assessed as inhibition of viral entry incubated for 1 hr prior to infection and measured after 48 hrs by Focus forming assay. The class given is functional, organism-based. The following applies: Severe acute respiratory syndrome coronavirus 2, USA-WA1/2020, Vero C1008.

With `C=C(C)[C@@H]1CCC(C)=C[C@H]1c1c(O)cc(CCCCC)c(C(=O)O)c1O` [CANNABIDIOLIC ACID], the Activity entry in the data set on Caco-2, in the data set on HEK-293T and in the data set with Vero C1008 was “Non-Toxic” in each case. Further, in the data set with SARS-CoV-2 [1], the result was Active. Also, the IC50 in the data set with SARS-CoV-2 [2] worked out at 24 µg/mL (≈ 66.9 µM).
In the case of `CCCCCc1cc(O)c(C/C=C(\C)CCC=C(C)C)c(O)c1C(=O)O` [CANNABIGEROLIC ACID], the Activity result with Caco-2, with HEK-293T and in the data set on Vero C1008 was “Non-Toxic” in each case. The result in the data set with SARS-CoV-2 [1] was Active. Moreover, the half-maximal inhibitory concentration (IC50) in the data set with SARS-CoV-2 [2] came out at 37 µg/mL (≈ 103 µM).
